Experimental data as given in patent EP1028734B1, “USE OF SPECIFIC STEADY-STATE R-TYPE CALCIUM CHANNEL BLOCKERS” (priority 1997, dated 1999).

Columns and labels:
R-type Ca^2+ channel [1] = assay: cell attached single channel patch clamp, R-type Ca2+ channel in human aortic vascular smooth muscle cell line; type: cell-based
Description: Also, for the R-type Ca^2+ channel current, the effect of the compounds are tested on the R-type Ca^2+ channel amplitude, voltage dependency and probability of opening, by using the cell-attached patch clamp technique (Bkaily 1994, supra; 1996, supra) and intra and extra patch pipette application of the drug.
In another series of experiments (n=7), using the cell attached patch clamp technique (Bkaily G. 1994, supra; Bkaily G. et al., 1996, supra), the effect of 10^-7M of MV8608 on the R-type Ca^2+ channel in human aortic vascular smooth muscle cell line was tested. […] In a second series of experiments (n=3), the patch pipette solution was free of MV8608 and after recording the single channel activities at different voltages, MV8608 (final concentration of 10^-7M) was applied to the extra-patch pipette solution containing 140mM KCI (where the rest of the cell is bathing). This experiment was designed to verify whether MV8608 crossed the cell membrane and if so, whether its effect from the internal side of the channel under the patch is the same as that when applied at the outer side thereof. […] Such a pattern of increase of probability of opening and the open duration accompanied with the sporadic decrease of the single channel current amplitude has never been observed when MV8608 was applied at the outer side of the single channel under the patch pipette.
In another series of experiments (n=7), the effect of 10^-7M of MV8612 was tested on the R-type Ca^2+ in human aortic VSM cells, using the single channel cell attached recording technique and intra and extra patch pipette application of drugs.
In one series of experiments (n=3), MV8612 (total concentration, 10^-7M) was only applied to the patch pipette. […] As for MV8608, in one series of experiments (n=4), MV8612 (10^-7M) was only applied to the extra-patch pipette, in order to verify if the compound penetrates into the cytosol and if so, how it affects the R-type Ca^2+ channel activity.

R-type Ca^2+ channel [2] = assay: confocal Fluo-3 3-dimension measurement of cytosolic [Ca]c and nuclear [Ca]n; type: cell-based, chick, human
[3] = system: double-perfused mesenteric bed of the rat; assay: double-perfused mesenteric bed of the rat
Excerpt: The inhibitory properties of MV8608 are specific for PAF as the response to ACh (arterial) and Angll (venous) are unaffected by the pregnane-containing moiety.

[4] = bradykinin-induced skin vascular permeability in rats; type: in vivo, rat
Description: To assess further the anti-inflammatory action of MV 8612 and MV 8608, their effects against the inflammatory responses caused by several mediators of inflammation in a murine model of pleurisy were tested (Saleh et al., 1996, Br. J. Pharmacol 118:811-819). In addition, both compounds were tested against the increase of vascular permeability caused by bradykinin in the rat skin (Neves et al., 1993b, Phytotherapy Research. 7:356-362).

human lymphocyte = human lymphocyte proliferation in vitro; type: cell-based; conditions: MV 8612, MV 8608 14.5 to 116 M
Description: In a separate series of experiments, compounds MV 8612 and MV 8608 were tested to analyze whether they interfered with human lymphocyte proliferation "in vitro". These experiments were carried out as reported previously (Moraes et al., 1996, Eur. J. Pharmacol. 312:333-339).

[5] = writhe responses in mice (acetic acid, acetylcholine, kaolin); type: in vivo; conditions: 2.7 to 27 mol/kg, i.p.
Excerpt: The antinociceptive actions of compound MV 8612 and MV 8608 were investigated in different models of nociception in mice as reported previously (Vaz et al., 1996, J. Pharmacol. Exp. Ther. 278:304-312).

(15R, 16R, 20S)-14, 16:15,20:16,21-triepoxi-15,16-seco 14β, 17α-pregn-5-ene-3β, 15-diol [MV8608]
single channel conductance of R-type Ca^2+ channel (R-type Ca^2+ channel [1]; 10^-7M applied in the patch pipette): without affecting | single channel amplitude and probability of opening of the single R-type Ca^2+ channel (R-type Ca^2+ channel [1]; 10^-7M applied in the patch pipette, 10^-6M nifedipine present): decreased the single channel amplitude and probability of opening | single channel current amplitude (R-type Ca^2+ channel [1]; 10^-7M applied to the extra-patch pipette solution): spontaneous decrease and release of the blockade | opening of the R-type channel (probability, duration, frequency) (R-type Ca^2+ channel [1]; 10^-7M applied to the extra-patch pipette solution (140mM KCl)): increased the probability and duration of opening | sustained increase of [Ca]c and [Ca]n induced with high concentration of PAF (10^-7M) (R-type Ca^2+ channel [2]; 10^-6M of compound, back to the control level, Figure 29B): significantly decrease | cytosolic and nuclear Ca^2+ sustained overload induced by 30mM KCl and PAF (R-type Ca^2+ channel [2]; 10^-7M of compound, nifedipine present): blocked both the cytosolic and nuclear Ca^2+ sustained overload | prevention of stimulation of the R-type Ca^2+ channel by sustained depolarization (R-type Ca^2+ channel [2]; 10^-8 M and 10^-7 M, dose-dependent): prevented | prevention of high PAF (10^-7 M) action (R-type Ca^2+ channel [2]; 10^-9M of compound): succeeded in preventing | sustained depolarization induced sustained increase of [Ca]c and [Ca]n (R-type Ca^2+ channel [2]; heart cells, Figure 29 panel A): blocked completely | response to ACh (arterial) and AngII (venous) [3]: unaffected | PAF induced arterial vasodilatation and venconstriction ([3]; 1 µM, Figure 24): blocked | PAF-induced responses ([3]; concentration series): concentration-dependent inhibition | increase of vascular permeability caused by bradykinin in the rat skin [4]: antagonised in a dose-related manner | human lymphocyte proliferation (human lymphocyte): graded inhibition | antinociceptive action in the same model of pain (writhing) [5]: only partial or even no antinociceptive action
